Reference: patent EP0564466B1, “LHRH-ANTAGONISTS” (ASTA Medica Aktiengesellschaft, priority 1990, dated 1992)
Non-standard residues stand in square brackets, D forms with d. Residues, ends and D or L forms follow the SMILES beside them. dPhe(4-Cl) = N[C@H](Cc1ccc(Cl)cc1)C(=O)O; d2Nal = N[C@H](Cc1ccc2ccccc2c1)C(=O)O; d3Pal = N[C@H](Cc1cccnc1)C(=O)O

Experiments:
rat ovulation = assay: Corbin's rat antiovulation method (antiovulatory activity, AOA); assay type: in vivo, SD rats; settings: for % AOA/µg 0.25: 0.25 µg; for % AOA/µg 0.25 / % AOA/µg 0.5 / % AOA/µg 1.0: in saline, given at noon of proestrus, female SD rats; for % AOA/µg 0.5: 0.5 µg; for % AOA/µg 1.0: 1.0 µg
Description: Corbin's rat antiovulatlon method is used. The healthy, adult, female SD rats (BW 200-250 g) are used in this experiment. All animals are maintained at 22-24 °C and on 14 h/10 h (light/dark) schedule. They are given standard food, and water ad libitum. The rats showing at least two consecutive 4-day estrous cycles in vaginal smear examination can be used in this experiment. […] The rats are sacrificed next day, their oviduct of two sides are examed under a dissecting microscope to determine the ovum number. The rats were divided into several groups according to the dosing, each group consists of about 10 rats, and the control group in which the rats are given equal amount of saline consists of 9-10 rats. The antiovulatory activity (AOA) is shown in the following equation: AOA=(number of unovulated rats)/(Total number of treated rats)X 100 % [formula]

rat mast cell [1] = assay: Histamine releasing test (HRT) in vitro; assay type: cell-based, SD rats; settings: in vitro histamine release from rat peritoneal mast cells, 15 min at 37 °C
Description: The healthy, adult, male SD rats (BW 200-250 g) housing in the above same conditions are used in this experiment. After anesthetized by CO2 the peritoneal cavity is washed with 50 ml of PIPES AC medium containing 20 units of heparin. Following centrifugation at 200xg for 8 min at 4 °C, cells are washed again and finally resuspended to a concentration of 8 to 24x10^5 total leucocyted/ml in PIPAS AC. This suspension contains approximately 5-10 % mast cells. Washed cells are used immediately after collection and are prewarmed for 5 min at 37 °C prior to pipetting 0,3 ml aliquots into polystyrene tubes containing 0,3 ml of diluted peptide. The mixtures are incubated for 15 min at 37 °C and the reaction stopped by centrifugation at 400 xg for 15 min at 4 °C. The supernatans are assayed for histamine content by manual fluorometric assay method after successively extraction with n-butanol and n-heptane. The histamine content can be obtained from the histamine standard curve (see below). The percentage of histamine release can be calculted from the following equation: Histamine release(%)=(E-B)/(C-B)X 100 % [formula] where E is the fluorometric reading of experimental sample, B is the fluorometric reading of samples with cells and buffer only, and C ist the fluorometric reading of "complete" (cells treated with HCIO4).
The standard curve can be obtained by plotting the OD values on a fluorometer at 350 nm/450 nm (activation/fluorescent) against the concentrations of serially diluted solution of accurately weighted histamine hydrochloride. The relative parameter r of the histamine standard curve can be 0.9998, and the lowest detectable concentration of histamine is 0,5 ng/ml.
The ED50 value of peptide can be gotten from the dose response curves obtained by plotting the histamine release versus the peptide concentration on semilogarithmic paper.
All peptide samples should be tested with mast cells from a minimum of 3 different rats.

rat mast cell [2] = settings: neuropeptide substance P; cited from earlier work

## CC(=O)N[C@H](Cc1ccc2ccccc2c1)C(=O)N[C@H](Cc1ccc(Cl)cc1)C(=O)N[C@H](Cc1cccnc1)C(=O)N[C@@H](CO)C(=O)N[C@@H](CCCNC(=N)N)C(=O)N[C@H](Cc1cccnc1)C(=O)N[C@@H](CC(C)C)C(=O)N[C@@H](CCCNC(=N)N)C(=O)N1CCC[C@H]1C(=O)N[C@H](C)C(N)=O [compound 1, [NAc-D2Nal^1, DpClphe^2, D3Pal^3, Ser^4, Arg^5, D3Pal^6, Leu^7, Arg^8, Pro^9, DAla^10]NH2] (Ac-[d2Nal][dPhe(4-Cl)][d3Pal]SR[d3Pal]LRP[dA]-NH2)
Rat ovulation; 0,5 µg, corn oil
  AOA: 100%
Rat ovulation; 0,12 µg, corn oil
  AOA: 60%
Rat ovulation; 0,25 µg, corn oil
  AOA: 85%
Rat ovulation
  % AOA/µg 0.25: 50%
  % AOA/µg 0.5: 75%
  % AOA/µg 1.0: 100%
Rat ovulation; corn oil
  ED50 for AOA: ≤ 0,125 µg
Rat mast cell [1]
  HRA (µg/ml) ED50 ± SEM: 3.5 ± 0.38 µg/mL
Rat mast cell [1]; listed as IV
  HRA (µg/ml) ED50 ± SEM: 3,5 µg/ml

## CC(=O)N[C@H](Cc1ccc2ccccc2c1)C(=O)N[C@H](Cc1ccc(Cl)cc1)C(=O)N[C@H](Cc1ccccc1)C(=O)N[C@@H](CO)C(=O)N[C@@H](CCCNC(=N)N)C(=O)N[C@H](Cc1cccnc1)C(=O)N[C@@H](CC(C)C)C(=O)N[C@@H](CCCNC(=N)N)C(=O)N1CCC[C@H]1C(=O)N[C@H](C)C(N)=O [compound 2, [NAc-D2Nal^1, DpClPhe^2, DPhe^3, Ser^4, Arg^5, D3Pal^6, Leu^7, Arg^8, Pro^9, DAla^10]NH2] (Ac-[d2Nal][dPhe(4-Cl)][dF]SR[d3Pal]LRP[dA]-NH2)
Rat ovulation
  % AOA/µg 0.25: 29%
  % AOA/µg 0.5: 60%
  % AOA/µg 1.0: 100%
Rat mast cell [1]
  HRA (µg/ml) ED50 ± SEM: 7.4 ± 0.98 µg/mL

## [Arg^1, Pro^2, Lys^3, Pro^4, Gln^5, Gln^6 Phe^7, Phe^8, Gly^9, Leu^10, Met^11]NH2 [substance P]
Rat mast cell [2]
  ED50 for HRA: 5 to 15 µM

## [NAc-D2Nal^1, DpClPhe^2, D3Pal^3 Ser4, Tyr5, D3Pal6, Leu7, Arg8, Pro9, DAla10]NH2 [III]
Rat ovulation; 1 µg, corn oil
  AOA: 83%
Rat ovulation; 3 µg, corn oil
  AOA: 100%
Rat mast cell [1]
  HRA (µg/ml) ED50 ± SEM: 9.8 µg/mL

## [NAc-D2Nal^1, DpClPhe^2, D3Pal^3, Ser^4, Tyr^5, DArg^6, Leu^7, Arg^8, Pro^9, DAla^10]NH2 [II, reference compound]
Rat ovulation; 0,5 µg, corn oil
  AOA: 100%
Rat ovulation; 0,25 µg, corn oil
  AOA: 57%

## [NAc-D2Nal^1, DpClPhe^2, DPhe^3, Ser^4, Tyr^5, D3Pal^6, Leu^7, Arg^8, Pro^9, DAla^10]NH2 [V']
Rat ovulation
  % AOA/µg 1.0: 100%
Rat mast cell [1]
  HRA (µg/ml) ED50 ± SEM: 7,4 µg/ml

## [NAc-D2Nal^1, DpClphe^2, D3Pal^3, Ser^4, Mop^5, D3Pal^6, Leu^7, Arg^8, Pro^9, DAla^10]-NH2 [compound 13]
Rat ovulation
  % AOA/µg 0.5: 25%
  % AOA/µg 1.0: 100%
Rat mast cell [1]
  HRA (µg/ml) ED50 ± SEM: 14.7 ± 2.70 µg/mL
Rat mast cell [1]; listed as VII
  HRA (µg/ml) ED50 ± SEM: 14,7 µg/ml
